# Laboratory results reported in ChEMBL document CHEMBL1201862, “PubChem BioAssay data set” (2004).
# Active and inactive are the calls of the source.
# How the values were obtained:
# [1] = target: Peroxisome proliferator-activated receptor gamma/Nuclear receptor coactivator 1 (Homo sapiens, UniProt P37231); assay type: functional;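 also: agonist potency as compounds enhance coactivator SRC-1 recruitment to PPARgamma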
# [2] = target: Peroxisome proliferator-activated receptor gamma/Nuclear receptor coactivator 3 (Homo sapiens, UniProt P37231); assay type: functional;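 also: agonist potency for raising coactivator recruitment to the receptor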
# [3] = target: Peroxisome proliferator-activated receptor gamma/Nuclear receptor coactivator 2 (Homo sapiens, UniProt P37231); assay type: functional;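 also: agonist potency for raising coactivator recruitment to the receptor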
# Peroxisome proliferator-activated receptor gamma/Nuclear receptor coactivator 2, sequence (P37231 whole entry): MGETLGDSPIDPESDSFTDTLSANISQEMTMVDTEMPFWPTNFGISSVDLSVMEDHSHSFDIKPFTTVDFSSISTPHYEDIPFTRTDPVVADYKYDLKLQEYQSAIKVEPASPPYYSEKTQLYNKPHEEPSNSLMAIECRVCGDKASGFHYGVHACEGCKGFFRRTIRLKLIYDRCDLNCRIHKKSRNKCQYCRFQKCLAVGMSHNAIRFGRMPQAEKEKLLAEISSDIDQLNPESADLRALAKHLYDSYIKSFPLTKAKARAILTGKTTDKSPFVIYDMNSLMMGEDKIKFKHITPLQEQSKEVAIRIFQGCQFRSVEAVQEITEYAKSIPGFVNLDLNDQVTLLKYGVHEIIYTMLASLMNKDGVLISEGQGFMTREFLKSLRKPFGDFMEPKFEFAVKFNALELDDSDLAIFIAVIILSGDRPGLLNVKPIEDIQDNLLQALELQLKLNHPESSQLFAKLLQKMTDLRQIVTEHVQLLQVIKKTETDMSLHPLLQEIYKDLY
# Peroxisome proliferator-activated receptor gamma/Nuclear receptor coactivator 2, sequence (Q15596 whole entry, further chain): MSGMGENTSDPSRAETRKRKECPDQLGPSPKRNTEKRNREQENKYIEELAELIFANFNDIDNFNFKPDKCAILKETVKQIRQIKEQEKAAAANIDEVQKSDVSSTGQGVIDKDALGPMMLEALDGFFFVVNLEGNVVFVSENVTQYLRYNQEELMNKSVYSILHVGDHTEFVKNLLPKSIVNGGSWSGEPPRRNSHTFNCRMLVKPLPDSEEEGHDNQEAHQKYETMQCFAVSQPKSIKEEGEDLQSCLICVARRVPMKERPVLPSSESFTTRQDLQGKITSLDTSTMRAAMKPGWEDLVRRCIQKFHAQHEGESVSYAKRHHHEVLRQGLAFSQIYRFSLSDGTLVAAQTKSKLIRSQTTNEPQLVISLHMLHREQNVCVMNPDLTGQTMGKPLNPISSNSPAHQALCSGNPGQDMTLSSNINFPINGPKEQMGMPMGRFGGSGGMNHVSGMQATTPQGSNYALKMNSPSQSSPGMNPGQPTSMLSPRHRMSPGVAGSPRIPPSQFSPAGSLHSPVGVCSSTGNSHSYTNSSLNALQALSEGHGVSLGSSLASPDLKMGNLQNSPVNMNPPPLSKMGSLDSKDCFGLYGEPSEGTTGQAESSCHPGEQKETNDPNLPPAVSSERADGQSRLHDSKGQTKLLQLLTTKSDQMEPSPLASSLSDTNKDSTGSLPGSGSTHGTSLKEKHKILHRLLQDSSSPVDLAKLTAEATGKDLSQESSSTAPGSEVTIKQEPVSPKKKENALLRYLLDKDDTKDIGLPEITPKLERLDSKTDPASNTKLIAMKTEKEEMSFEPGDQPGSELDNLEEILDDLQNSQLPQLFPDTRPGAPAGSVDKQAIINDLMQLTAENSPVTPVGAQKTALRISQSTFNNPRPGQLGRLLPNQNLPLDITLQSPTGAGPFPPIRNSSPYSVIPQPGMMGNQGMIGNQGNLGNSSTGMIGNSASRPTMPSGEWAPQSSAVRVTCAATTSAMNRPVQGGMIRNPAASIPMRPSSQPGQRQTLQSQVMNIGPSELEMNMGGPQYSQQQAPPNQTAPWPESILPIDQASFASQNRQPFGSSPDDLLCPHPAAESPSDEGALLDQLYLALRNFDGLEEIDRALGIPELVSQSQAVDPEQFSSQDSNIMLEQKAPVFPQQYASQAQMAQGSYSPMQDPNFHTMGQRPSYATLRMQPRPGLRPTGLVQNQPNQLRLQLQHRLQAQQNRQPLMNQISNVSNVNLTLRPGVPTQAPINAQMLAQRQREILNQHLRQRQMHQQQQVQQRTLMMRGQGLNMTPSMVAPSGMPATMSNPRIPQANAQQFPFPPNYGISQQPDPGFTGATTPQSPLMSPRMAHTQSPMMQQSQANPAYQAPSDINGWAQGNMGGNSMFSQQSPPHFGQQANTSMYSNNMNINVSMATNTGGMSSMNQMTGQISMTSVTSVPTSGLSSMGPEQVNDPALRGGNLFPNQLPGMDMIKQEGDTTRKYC
# [4] = target: Eukaryotic translation initiation factor 4E (Mus musculus, UniProt P63073); experiment: blockers of eIF4G binding by eIF4E – biochemical, TR-FRET, dose response (AID 855); assay type: functional;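 also: potency for disrupting eIF4E binding to eIF4GI seen as loss of FRET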
# Eukaryotic translation initiation factor 4E, sequence (P63073 whole entry): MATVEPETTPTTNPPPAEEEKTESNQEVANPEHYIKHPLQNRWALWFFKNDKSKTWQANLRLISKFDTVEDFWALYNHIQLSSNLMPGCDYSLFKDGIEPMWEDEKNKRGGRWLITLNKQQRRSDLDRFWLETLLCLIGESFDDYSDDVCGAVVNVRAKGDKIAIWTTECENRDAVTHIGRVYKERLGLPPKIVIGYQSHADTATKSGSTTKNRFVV
# [5] = target: T1, Cytochrome P450 2C9 (Homo sapiens, UniProt P11712)
# T1 sequence (P11712 whole entry): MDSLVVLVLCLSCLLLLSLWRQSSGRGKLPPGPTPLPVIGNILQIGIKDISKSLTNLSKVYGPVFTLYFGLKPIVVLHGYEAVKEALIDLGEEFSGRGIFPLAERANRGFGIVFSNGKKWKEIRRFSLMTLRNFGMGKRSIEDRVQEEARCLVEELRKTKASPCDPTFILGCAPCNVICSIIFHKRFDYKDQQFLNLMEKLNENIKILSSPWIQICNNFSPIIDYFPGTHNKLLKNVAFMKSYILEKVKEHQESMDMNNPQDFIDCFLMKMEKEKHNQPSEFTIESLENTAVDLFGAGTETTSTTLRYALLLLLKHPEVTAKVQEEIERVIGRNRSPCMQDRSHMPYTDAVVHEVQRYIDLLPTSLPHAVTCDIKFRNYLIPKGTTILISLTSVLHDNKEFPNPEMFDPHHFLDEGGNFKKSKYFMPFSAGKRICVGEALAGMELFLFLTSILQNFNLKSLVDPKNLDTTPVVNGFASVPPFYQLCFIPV
# [6] = target: T2, Heat shock factor protein 1 (Mus musculus, UniProt P38532); experiment: decrease of HSF1-responsive luciferase luminescence – cell-based, NIH3T3, dose retest, confirmation (AID 2382); assay type: functional;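 also: NIH3T3 fibroblasts with HSF1-driven luciferase reporter stressed by proteasome inhibitor MG132; luminescence from HSF1-driven luciferase expression after 8 hours of MG132 stress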
# T2 sequence (P38532 whole entry): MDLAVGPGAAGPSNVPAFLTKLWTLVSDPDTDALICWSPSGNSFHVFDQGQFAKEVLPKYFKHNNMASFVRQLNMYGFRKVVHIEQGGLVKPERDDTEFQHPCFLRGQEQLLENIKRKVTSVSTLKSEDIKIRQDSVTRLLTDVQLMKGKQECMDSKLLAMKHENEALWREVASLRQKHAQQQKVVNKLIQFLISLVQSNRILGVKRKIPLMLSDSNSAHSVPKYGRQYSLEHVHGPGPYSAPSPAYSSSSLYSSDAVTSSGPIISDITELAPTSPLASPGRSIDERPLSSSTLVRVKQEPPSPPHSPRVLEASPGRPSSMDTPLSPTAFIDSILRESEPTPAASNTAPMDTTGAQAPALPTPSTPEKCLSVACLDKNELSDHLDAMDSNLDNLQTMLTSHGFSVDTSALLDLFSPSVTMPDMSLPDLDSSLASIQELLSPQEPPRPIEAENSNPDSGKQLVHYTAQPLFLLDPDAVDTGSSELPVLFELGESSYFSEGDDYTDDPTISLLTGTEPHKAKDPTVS
# [7] = target: T3, Small ubiquitin-related modifier 1 (Homo sapiens, UniProt P63165); experiment: SUMO1 protein interaction blockers, potency – biochemical, fluorescence polarization, uHTS hits, dose response (AID 624382); assay type: functional; details: read-out: IC50_Mean
# [8] = target: T3, Small ubiquitin-related modifier 1; experiment: SUMO1 protein-protein binding blockers, potency – biochemical, FRET, dose response (AID 624383); assay type: functional; details: read-out: IC50_Mean
# [9] = target: T1, Cytochrome P450 2C9; remark: listed apart in the source
# [10] = target: Cytochrome P450 3A4 (Homo sapiens, UniProt P08684);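 also: CYP3A4 tested as one member of a cytochrome P450 panel screen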
# [11] = target: T4, DNA repair and recombination protein RAD54-like (Homo sapiens, UniProt Q92698); experiment: RAD54 Holliday junction migration blockers – biochemical, fluorescence, cherry-picked samples, dose series, confirmation (AID 651657); assay type: functional
# T4 sequence (Q92698 whole entry): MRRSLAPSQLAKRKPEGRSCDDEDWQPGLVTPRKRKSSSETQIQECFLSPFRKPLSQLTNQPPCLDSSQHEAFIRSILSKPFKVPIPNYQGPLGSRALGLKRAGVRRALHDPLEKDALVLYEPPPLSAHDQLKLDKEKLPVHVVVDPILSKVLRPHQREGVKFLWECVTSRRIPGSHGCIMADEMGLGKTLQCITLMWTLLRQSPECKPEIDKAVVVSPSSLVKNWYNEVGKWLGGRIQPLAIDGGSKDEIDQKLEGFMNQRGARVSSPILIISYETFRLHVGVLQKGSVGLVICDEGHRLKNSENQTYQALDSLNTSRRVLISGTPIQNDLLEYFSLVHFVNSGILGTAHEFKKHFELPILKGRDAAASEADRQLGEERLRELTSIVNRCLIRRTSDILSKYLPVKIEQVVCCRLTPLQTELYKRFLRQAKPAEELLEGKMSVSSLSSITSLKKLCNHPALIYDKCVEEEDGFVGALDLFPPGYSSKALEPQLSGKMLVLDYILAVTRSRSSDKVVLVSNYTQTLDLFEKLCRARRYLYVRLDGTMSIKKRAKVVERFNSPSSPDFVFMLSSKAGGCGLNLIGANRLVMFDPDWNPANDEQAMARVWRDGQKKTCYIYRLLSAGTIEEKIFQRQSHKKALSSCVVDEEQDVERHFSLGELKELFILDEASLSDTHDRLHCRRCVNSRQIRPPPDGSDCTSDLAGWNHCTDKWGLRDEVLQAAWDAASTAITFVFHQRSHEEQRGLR
# [12] = target: T5, Corticotropin-releasing factor receptor 2/Corticotropin-releasing factor-binding protein (Homo sapiens, UniProt P24387+Q13324); experiment: activators of CRF receptor 2 with binding protein – uHTS hits, confirmation (AID 602473); assay type: functional; details: read-out: EC50_Mean
# T5 sequence (Q13324 whole entry): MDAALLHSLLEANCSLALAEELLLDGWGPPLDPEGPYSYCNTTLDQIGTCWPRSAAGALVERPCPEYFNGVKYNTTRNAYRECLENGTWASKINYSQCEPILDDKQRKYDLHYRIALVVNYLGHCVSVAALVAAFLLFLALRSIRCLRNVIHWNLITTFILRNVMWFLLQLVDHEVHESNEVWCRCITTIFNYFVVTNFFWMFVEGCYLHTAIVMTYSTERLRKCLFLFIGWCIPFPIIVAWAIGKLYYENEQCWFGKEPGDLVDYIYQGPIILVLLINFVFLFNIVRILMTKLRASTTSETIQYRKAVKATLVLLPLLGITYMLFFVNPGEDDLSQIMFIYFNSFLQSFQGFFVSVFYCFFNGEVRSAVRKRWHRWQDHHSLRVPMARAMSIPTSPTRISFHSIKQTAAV
# T5 sequence (P24387 whole entry): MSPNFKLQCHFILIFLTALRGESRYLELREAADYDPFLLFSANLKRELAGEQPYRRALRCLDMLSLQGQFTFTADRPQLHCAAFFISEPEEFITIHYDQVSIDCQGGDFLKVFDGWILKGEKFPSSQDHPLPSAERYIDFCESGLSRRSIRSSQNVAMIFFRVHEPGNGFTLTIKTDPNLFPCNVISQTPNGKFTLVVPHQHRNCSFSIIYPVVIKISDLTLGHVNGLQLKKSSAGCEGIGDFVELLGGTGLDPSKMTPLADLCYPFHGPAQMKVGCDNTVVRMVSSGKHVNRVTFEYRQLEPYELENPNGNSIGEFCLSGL
# [13] = target: T5, Corticotropin-releasing factor receptor 2/Corticotropin-releasing factor-binding protein; experiment: Dose Response confirmation of uHTS hits for small molecule antagonists of the CRF-binding protein and CRF-R2 receptor complex.; assay type: functional; details: read-out: IC50_Mean
# [14] = target: T6, Cytochrome P450 1A2 (Homo sapiens, UniProt P05177);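 also: PubChem cytochrome P450 panel assay, CYP1A2 panel member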
# T6 sequence (P05177 whole entry): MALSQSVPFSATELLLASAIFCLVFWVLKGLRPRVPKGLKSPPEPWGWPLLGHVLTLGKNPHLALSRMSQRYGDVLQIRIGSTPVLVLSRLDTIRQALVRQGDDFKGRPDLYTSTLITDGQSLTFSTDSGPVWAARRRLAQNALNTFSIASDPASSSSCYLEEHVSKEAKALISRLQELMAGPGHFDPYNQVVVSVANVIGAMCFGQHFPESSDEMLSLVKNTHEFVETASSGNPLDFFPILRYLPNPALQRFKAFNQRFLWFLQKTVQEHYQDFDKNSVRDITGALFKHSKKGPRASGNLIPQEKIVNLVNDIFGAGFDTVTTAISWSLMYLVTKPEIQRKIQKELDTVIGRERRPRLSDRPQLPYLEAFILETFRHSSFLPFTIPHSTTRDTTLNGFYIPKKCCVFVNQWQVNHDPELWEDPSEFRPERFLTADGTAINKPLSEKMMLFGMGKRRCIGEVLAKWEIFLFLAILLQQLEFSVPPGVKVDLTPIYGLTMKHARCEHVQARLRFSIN
# [15] = test system: HT-1080; experiment: HT1080 cell viability loss – fluorescence readout (AID 620); assay type: functional, cell-based; details: Homo sapiens
# [16] = target: Luciferin 4-monooxygenase (Photinus pyralis, UniProt P08659); experiment: Counter Screen for Luciferase-based Assay Positives. [Related pubchem assays: 620, 618, 411 ]
# [17] = target: Induced myeloid leukemia cell differentiation protein Mcl-1 (Homo sapiens, UniProt Q07820); assay type: functional
# Induced myeloid leukemia cell differentiation protein Mcl-1, sequence (Q07820 whole entry): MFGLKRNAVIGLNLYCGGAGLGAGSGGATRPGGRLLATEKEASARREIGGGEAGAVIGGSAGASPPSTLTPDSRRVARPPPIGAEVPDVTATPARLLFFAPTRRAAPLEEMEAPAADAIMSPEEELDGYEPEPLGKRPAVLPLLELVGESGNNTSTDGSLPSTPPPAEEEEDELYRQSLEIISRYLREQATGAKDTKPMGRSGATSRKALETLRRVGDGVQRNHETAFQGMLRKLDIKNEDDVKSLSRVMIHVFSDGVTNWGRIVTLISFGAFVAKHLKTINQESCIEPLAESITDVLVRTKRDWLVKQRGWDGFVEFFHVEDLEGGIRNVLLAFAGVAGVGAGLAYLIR
# [18] = target: T7, DNA repair protein RAD52 homolog (Homo sapiens, UniProt P43351); assay type: functional, biochemical
# T7 sequence (P43351 whole entry): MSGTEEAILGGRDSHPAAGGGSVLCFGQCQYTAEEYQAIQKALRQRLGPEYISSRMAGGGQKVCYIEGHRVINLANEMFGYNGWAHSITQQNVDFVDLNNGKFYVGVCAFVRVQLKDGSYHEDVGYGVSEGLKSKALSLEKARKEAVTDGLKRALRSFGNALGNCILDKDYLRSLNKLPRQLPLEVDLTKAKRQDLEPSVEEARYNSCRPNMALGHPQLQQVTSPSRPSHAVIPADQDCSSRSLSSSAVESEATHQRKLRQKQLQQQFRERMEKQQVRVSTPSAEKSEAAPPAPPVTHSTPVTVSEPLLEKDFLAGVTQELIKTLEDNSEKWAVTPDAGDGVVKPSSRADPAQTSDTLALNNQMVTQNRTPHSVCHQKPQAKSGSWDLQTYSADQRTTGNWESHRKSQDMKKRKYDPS
# [19] = blockers of HIV-1 envelope-mediated cell-cell fusion – cherry-pick, dose response (AID 652057); assay type: functional, cell-based
# [20] = HIV-1 AD8 envelope cell-cell fusion blockers – cherry-pick, dose response (AID 652062); assay type: functional, cell-based;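 also: luciferase signal from cell-cell fusion driven by HIV-1 clade B AD8 Env; potency is for inhibitors of fusion seen as a drop in luminescence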
# Peroxisome proliferator-activated receptor gamma/Nuclear receptor coactivator 1, sequence (P37231 whole entry): as the sequence (P37231 whole entry) above
# Peroxisome proliferator-activated receptor gamma/Nuclear receptor coactivator 1, sequence (Q15788 whole entry, further chain): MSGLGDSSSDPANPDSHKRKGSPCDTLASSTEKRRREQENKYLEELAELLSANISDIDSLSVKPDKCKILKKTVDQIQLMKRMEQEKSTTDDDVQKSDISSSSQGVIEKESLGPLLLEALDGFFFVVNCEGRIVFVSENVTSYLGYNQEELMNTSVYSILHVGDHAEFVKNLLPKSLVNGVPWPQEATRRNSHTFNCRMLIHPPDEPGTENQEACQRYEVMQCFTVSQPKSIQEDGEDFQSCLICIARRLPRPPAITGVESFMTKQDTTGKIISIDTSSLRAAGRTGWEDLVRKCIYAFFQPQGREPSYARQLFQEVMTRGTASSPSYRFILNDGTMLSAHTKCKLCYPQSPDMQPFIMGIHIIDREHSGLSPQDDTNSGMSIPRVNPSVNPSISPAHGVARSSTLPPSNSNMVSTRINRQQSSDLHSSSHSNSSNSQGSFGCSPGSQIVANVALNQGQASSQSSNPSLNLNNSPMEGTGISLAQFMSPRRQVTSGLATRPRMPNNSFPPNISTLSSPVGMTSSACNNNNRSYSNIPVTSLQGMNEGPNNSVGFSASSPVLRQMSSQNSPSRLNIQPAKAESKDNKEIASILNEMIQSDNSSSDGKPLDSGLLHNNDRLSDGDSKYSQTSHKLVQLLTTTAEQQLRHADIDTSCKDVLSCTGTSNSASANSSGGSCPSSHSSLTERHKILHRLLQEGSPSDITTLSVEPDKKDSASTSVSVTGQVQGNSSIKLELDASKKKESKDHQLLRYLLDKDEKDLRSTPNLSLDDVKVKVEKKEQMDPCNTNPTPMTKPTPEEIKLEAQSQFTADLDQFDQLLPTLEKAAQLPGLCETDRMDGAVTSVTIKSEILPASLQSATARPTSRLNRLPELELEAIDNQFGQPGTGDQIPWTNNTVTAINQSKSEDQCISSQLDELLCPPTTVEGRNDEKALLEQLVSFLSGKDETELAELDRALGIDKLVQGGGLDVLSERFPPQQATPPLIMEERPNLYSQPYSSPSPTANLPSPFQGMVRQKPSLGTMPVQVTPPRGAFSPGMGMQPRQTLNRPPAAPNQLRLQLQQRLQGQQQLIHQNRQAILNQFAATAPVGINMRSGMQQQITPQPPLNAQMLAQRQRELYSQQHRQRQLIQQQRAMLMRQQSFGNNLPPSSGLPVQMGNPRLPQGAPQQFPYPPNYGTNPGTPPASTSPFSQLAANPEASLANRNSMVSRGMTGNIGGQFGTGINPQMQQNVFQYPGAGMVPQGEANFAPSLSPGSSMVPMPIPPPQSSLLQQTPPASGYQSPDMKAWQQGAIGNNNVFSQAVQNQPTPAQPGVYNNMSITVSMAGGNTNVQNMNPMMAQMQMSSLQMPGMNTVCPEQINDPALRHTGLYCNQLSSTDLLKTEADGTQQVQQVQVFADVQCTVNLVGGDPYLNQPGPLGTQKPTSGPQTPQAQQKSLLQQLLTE
smiles,measurement,setting,value
COc1ccc(Nc2nc(S(=O)(=O)c3ccc(C)cc3)c(Cl)s2)cc1,EC50,[1],> 79.4 µM (not active)
same,EC50,[2],> 79.4 µM (not active)
same,EC50,[3],> 79.4 µM (not active)
COc1ccc2sc3c(O)nc4ccccc4c3c2c1,EC50,[1],11 µM (not active)
same,EC50,[2],11.2 µM (not active)
same,EC50,[3],12.1 µM (not active)
O=C(CN1C(=O)S/C(=C\c2ccc(Cl)cc2)C1=O)NNC(=O)c1ccccc1O,IC50,[4],> 64 µM (inactive)
CC(C)C(NC(=O)C12CC3CC(CC(C3)C1)C2)C(=O)NC1=NCCS1 (stereo not given),IC50,[4],> 64 µM (inactive)
same,AC50,[5],25.1 µM (inconclusive)
same,EC50,[6],> 195 µM (not active)
CN(C(=O)COC(=O)c1ccc(-c2ccc(O)cc2)cc1)C1CCS(=O)(=O)C1 (stereo not given),IC50,[7],> 66.6 µM (inactive)
same,IC50,[8],16.1 µM (active)
COc1ccc([N+](=O)[O-])cc1NC(=O)CC(C)c1ccccc1 (stereo not given),AC50,[9],inconclusive
COc1ccc(OC)c(Nc2ncnc3sc(-c4ccccc4)cc23)c1,IC50,[4],> 64 µM (inactive)
FC(F)(F)c1cnc(/C=C/Nc2ccccc2Cl)c(Cl)c1,AC50,[9],inconclusive
same,AC50,[10],31.6 µM (inconclusive)
CCN1CCN(CCCNC(=O)c2cc3c(=O)oc4ccc(C)cc4c3s2)CC1,AC50,[11],36.3 µM (active)
O=C1CSC(c2ccccc2F)N1c1cc(Cl)ccc1O (stereo not given),AC50,[9],inconclusive
same,EC50,[12],> 53 µM (inactive)
same,IC50,[13],> 47.1 µM (inactive)
same,AC50,[14],39.8 µM (inconclusive)
Cc1ccccc1Cn1nnc(-c2cccc(C(=O)O)c2)n1,EC50,[15],> 50 µM (not active)
same,EC50,[16],> 100 µM (not active)
COc1ccc2nc(NC(=O)Nc3cccc4ccccc34)sc2c1,IC50,[17],5.86 µM (not active)
COc1ccccc1CNc1cc(-c2ccccc2OC)ncn1,AC50,[9],inconclusive
Cc1cc(C(=O)OCC(=O)Nc2sc3c(c2C#N)CCC(C)C3)c2ccccc2n1 (stereo not given),IC50,[17],5.16 µM (active)
O=C(C1CCN(S(=O)(=O)c2cccc3nsnc23)CC1)N1CCN(c2ccccc2F)CC1,AC50,[9],inconclusive
O=C(NCc1ccc2c(c1)OCO2)Nc1ccc2nsnc2c1,EC50,[1],20.4 µM (not active)
same,EC50,[2],29.8 µM (not active)
same,EC50,[3],17.8 µM (not active)
O=C(Cn1c(=O)n(-c2ccccc2)c(=O)c2sccc21)N1CCCC1,IC50,[17],11.6 µM (not active)
CCNc1nc(NC(C)C)nc(Oc2ccc(=O)n(C)n2)n1,IC50,[4],50 µM (inactive)
Nc1ccccc1-c1nnc(SCc2ccccc2F)nc1O,IC50,[4],> 64 µM (inactive)
NCCCC[C@H]1CN=C(S)N1CCc1cc(C(F)(F)F)cc(C(F)(F)F)c1,AC50,[18],17.4 µM (active)
CCN1CCN(Cc2ccc(NC(=O)c3cc(NC(=O)c4cnnc5ccccc45)cc(OC)c3)cc2C(F)(F)F)CC1,AC50,[18],24.3 µM (active)
COc1ccc(-c2cc(NC=O)c3ncc(-c4cccc(C(=O)NCCN(C)C)c4)n3c2)cn1,AC50,[11],16.6 µM (active)
same,AC50,[18],5.69 µM (active)
COc1ccc(S(=O)(=O)N(C)C[C@@H]2Oc3ccc(NC(=O)C4CCCCC4)cc3CC(=O)N([C@@H](C)CO)C[C@@H]2C)cc1,AC50,[19],27.6 µM (active)
COCC(=O)N1C[C@@H](C)[C@H](OC)CN(C)C(=O)c2ccc(NC(=O)c3ccc(OC)cc3)cc2OC[C@@H]1C,AC50,[20],5.52 µM (active)
O=C(O)c1cc(N/N=C/c2ccc(N3CCOCC3)s2)ccc1Cl,IC50,[17],3.84 µM (active)
